Data on one compound can be found in paper PMC9301601 (Frontiers in Pharmacology, 2022).

This series concerns hiPSC-CMs. Description: Action potential recording in hiPSC-CMs, whole-cell patch-clamp (current-clamp). Format: cell-based, human. To be noted: LPV-treated hiPSC-CMs, Figure 6H. In general terms: In patch-clamp work, channel activity is measured electrically.

Regarding `Cc1cccc(C)c1OCC(=O)N[C@@H](Cc1ccccc1)[C@@H](O)C[C@H](Cc1ccccc1)NC(=O)[C@H](C(C)C)N1CCCNC1=O` [LPV, lopinavir], the “Interval (spontaneous rate interval)” value is 1.4 ± 0.3 s.
